According to patent US7094752B2 (Chiron Corporation, priority 1997, dated 2006):
Where two headings read alike, the source gives them in different places. Marks after values point to notes of the source that are not given here. Square brackets hold non-standard residues; d marks the D form. Peptide text beside a SMILES is read from it. Abu = CC[C@H](N)C(=O)O

What was measured:
[1] = biological target: T1, soluble uPAR (Homo sapiens, UniProt Q03405); type: binding; design: sUPAR, soluble truncated form of the urokinase receptor; made in house; host or cells: baculovirus-infected Sf9 insect cells; details: for % Inhibition 2.5 uM: 2500.0; for % Inhibition 5 uM: 5000.0
T1 sequence (Q03405 23-305 limits assumed): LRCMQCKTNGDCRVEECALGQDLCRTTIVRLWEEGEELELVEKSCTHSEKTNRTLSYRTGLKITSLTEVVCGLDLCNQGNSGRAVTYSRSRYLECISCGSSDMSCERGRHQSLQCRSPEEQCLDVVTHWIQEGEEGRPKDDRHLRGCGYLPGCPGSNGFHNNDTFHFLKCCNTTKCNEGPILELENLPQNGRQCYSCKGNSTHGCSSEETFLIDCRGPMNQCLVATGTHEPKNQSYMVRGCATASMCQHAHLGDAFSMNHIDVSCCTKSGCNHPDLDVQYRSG
Experimental: Streptavidin, 100 μl (0.1 mg/ml) in 50 mM Na2CO3, pH 9.6, was added to MaxiSorp wells (Nunc), incubated overnight at 4 C, and then washed with PBS/BSA. Biotinylated sUPAR (25 nM in PBS/BSA) was added to the wells and incubated for 2 hours at room temperature prior to washing. Competitive peptide inhibitors were added to the wells immediately prior to addition of the bacteriophage. The wells were incubated for one hour at room temperature, then washed and bound bacteriophage eluted with 6M urea in 0.1N HCl, pH 2.5. After 15 minutes, the urea eluate was brought to neutral pH by addition of 2M Tris base and the bacteriophage titers of input stocks and elutions measured by plaque formation assay. Results were expressed as the percent of input bacteriophage which bind to the wells. Alternatively, the amount of bacteriophage was determined in an ELISA where phage were preincubated with HRP-conjugated anti-M13 antibody for 30 minutes at room temperature before dispensing into wells prepared as above and incubated for one hour at room temperature. The final anti-M13 conjugate dilution was 1:4000. After washing, TMB substrate (100 μl/well) was added and color development was stopped with 0.8N H2SO4 (100 μl/well). The absorbance at 450 nm was then measured in a 96 well plate reader.
In a uPAR binding assay, the following analogs were tested in a competition with phage displaying either peptide 25 or peptide 9. The analogs comprise both natural and unnatural amino acids.
The analogs were tested in an assay utilizing soluble uPAR, similar to the method described in Example 2. The analogs were tested for their ability to compete with phage displaying either peptide 9 or peptide 25. Analogs 3–61 were tested in competition with peptide 25. Analogs 62–96 were tested in competition with peptide 9. Approximately 10^8 plaque forming units of the phage were used in the assay.
The analogs were tested at a concentration at 40 μM in the uPAR competition assay with phage displaying peptide 25. The results below show which analogs were active.
Analogs 31–61 were tested for their ability to compete with phage displaying peptide 25. The active analogs were tested further at two concentrations, 5 μM and 2.5 μM. These concentrations were calculated based on the synthesis reactions. However, the sequences * were further tested and determined to contain high amounts of amino acids and the quantity tested could have been higher than 5 μM or 2.5 μM.

[2] = biological target: T1, soluble uPAR; details: for receptor binding activity, alanine scan of peptide 9: compared to peptide 9; for % Inhibition 2.5 uM: 2500.0; for % Inhibition 5 uM: 5000.0
Experimental: The analogs were tested for their ability to compete with phage displaying either peptide 9 or peptide 25. […] Approximately 10^8 plaque forming units of the phage were used in the assay.

receptor binding activity, alanine scan of peptide 9 [2]	% Inhibition 2.5 uM [2]	% Inhibition 5 uM [2] [%]	Compound	further results
			CSCC[C@H](NC(=O)[C@H](Cc1ccc(O)cc1)NC(=O)CNC(=O)[C@H](CC(C)C)NC(=O)[C@H](CO)NC(=O)[C@H](CC(C)C)NC(=O)[C@H](Cc1c[nH]cn1)NC(=O)[C@H](Cc1c[nH]cn1)NC(=O)[C@H](Cc1ccc(O)cc1)NC(=O)[C@@H](NC(=O)[C@H](CO)NC(=O)[C@@H](CCC(=O)O)NC(=O)[C@H](C)N)[C@@H](C)O)C(=O)N[C@@H](Cc1ccc(O)cc1)C(=O)N[C@H](C(=O)N[C@@H](CC(C)C)C(=O)N[C@@H](CC(N)=O)C(N)=O)[C@@H](C)O [Analog 47] (H-A[dE]STYHHLSLGYMYTLN-NH2)	% Inhibition 2.5 uM [1]: 35%; % Inhibition 5 uM [1]: 61%
destroyed receptor binding activity			AEFFKLGPNGYAYLHSA [Analog 75]	
decreased but did not destroy			AEFAKLGPNGYVYLHSA [Analog 67]	
	89%	95	CC(C)C[C@H](NC(=O)[C@H](CCCCN)NC(=O)[C@H](Cc1ccccc1)NC(=O)[C@H](Cc1ccccc1)NC(=O)[C@H](CCC(=O)O)NC(=O)[C@H](C)N)C(=O)NCC(=O)N1CCC[C@H]1C(=O)N[C@@H](CC(N)=O)C(=O)N[C@H](CO)C(=O)N[C@@H](Cc1ccc(O)cc1)C(=O)N[C@H](C(=O)N[C@@H](Cc1ccc(O)cc1)C(=O)N[C@@H](CC(C)C)C(=O)N[C@@H](Cc1c[nH]cn1)C(=O)N[C@@H](CO)C(=O)N[C@@H](C)C(N)=O)C(C)C [Analog 80] (H-AEFFKLGPN[dS]YVYLHSA-NH2)	
			CC[C@H](NC(=O)[C@H](Cc1ccc(O)cc1)NC(=O)CNC(=O)[C@H](CC(C)C)NC(=O)[C@H](CO)NC(=O)[C@H](CC(C)C)NC(=O)[C@H](Cc1c[nH]cn1)NC(=O)[C@H](Cc1c[nH]cn1)NC(=O)[C@H](Cc1ccc(O)cc1)NC(=O)[C@@H](NC(=O)[C@H](CO)NC(=O)[C@H](CCC(=O)O)NC(=O)[C@H](C)N)[C@@H](C)O)C(=O)N[C@@H](Cc1ccc(O)cc1)C(=O)N[C@H](C(=O)N[C@@H](CC(C)C)C(=O)N[C@@H](CC(N)=O)C(N)=O)[C@@H](C)O [Analog 45] (H-AESTYHHLSLGY[Abu]YTLN-NH2)	% Inhibition 2.5 uM [1]: 31%; % Inhibition 5 uM [1]: 59%
	24* %	41	CC(C)C[C@H](NC(=O)[C@H](CCCCN)NC(=O)[C@H](Cc1ccccc1)NC(=O)[C@H](Cc1ccccc1)NC(=O)[C@H](CCC(=O)O)NC(=O)[C@@H](C)N)C(=O)NCC(=O)N1CCC[C@H]1C(=O)N[C@@H](CC(N)=O)C(=O)NCC(=O)N[C@@H](Cc1ccc(O)cc1)C(=O)N[C@H](C(=O)N[C@@H](Cc1ccc(O)cc1)C(=O)N[C@@H](CC(C)C)C(=O)N[C@@H](Cc1c[nH]cn1)C(=O)N[C@@H](CO)C(=O)N[C@@H](C)C(N)=O)C(C)C [Analog 82] (H-[dA]EFFKLGPNGYVYLHSA-NH2)	
destroyed receptor binding activity			AEFFKLGPNGAVYLHSA [Analog 74]	
	47%	59	CC(C)C[C@H](NC(=O)[C@H](CCCCN)NC(=O)[C@H](Cc1ccccc1)NC(=O)[C@H](Cc1ccccc1)NC(=O)[C@H](CCC(=O)O)NC(=O)[C@H](C)N)C(=O)NCC(=O)N1CCC[C@H]1C(=O)N[C@@H](CC(N)=O)C(=O)NCC(=O)N[C@@H](Cc1ccc(O)cc1)C(=O)N[C@H](C(=O)N[C@@H](Cc1ccc(O)cc1)C(=O)N[C@@H](CC(C)C)C(=O)N[C@@H](Cc1c[nH]cn1)C(=O)N[C@H](CO)C(=O)N[C@@H](C)C(N)=O)C(C)C [Analog 95] (H-AEFFKLGPNGYVYLH[dS]A-NH2)	
decreased but did not destroy			AAFFKLGPNGYVYLHSA [Analog 65]	
	36%	41	CC(C)C[C@H](NC(=O)[C@H](CCCCN)NC(=O)[C@H](Cc1ccccc1)NC(=O)[C@H](Cc1ccccc1)NC(=O)[C@H](CCC(=O)O)NC(=O)[C@H](C)N)C(=O)NCC(=O)N1CCC[C@H]1C(=O)N[C@@H](CC(N)=O)C(=O)NCC(=O)N[C@@H](Cc1ccc(O)cc1)C(=O)N[C@H](C(=O)N[C@@H](Cc1ccc(O)cc1)C(=O)N[C@@H](CC(C)C)C(=O)N[C@H](Cc1c[nH]cn1)C(=O)N[C@@H](CO)C(=O)N[C@@H](C)C(N)=O)C(C)C [Analog 94] (H-AEFFKLGPNGYVYL[dH]SA-NH2)	
destroyed receptor binding activity			AEFFKLGPNGYVALHSA [Analog 76]	
decreased but did not destroy			AEFFKLGPNGYVYAHSA [Analog 77]	
	8.5%	3.3	CC(C)C[C@H](NC(=O)[C@H](CCCCN)NC(=O)[C@H](Cc1ccccc1)NC(=O)[C@H](Cc1ccccc1)NC(=O)[C@H](CCC(=O)O)NC(=O)[C@H](C)N)C(=O)NCC(=O)N1CCC[C@H]1C(=O)N[C@@H](CC(N)=O)C(=O)NCC(=O)N[C@@H](Cc1ccc(O)cc1)C(=O)N[C@H](C(=O)N[C@H](Cc1ccc(O)cc1)C(=O)N[C@@H](CC(C)C)C(=O)N[C@@H](Cc1c[nH]cn1)C(=O)N[C@@H](CO)C(=O)N[C@@H](C)C(N)=O)C(C)C [Analog 92] (H-AEFFKLGPNGYV[dY]LHSA-NH2)	
	38* %	40	CC(C)C[C@H](NC(=O)[C@H](CCCCN)NC(=O)[C@H](Cc1ccccc1)NC(=O)[C@H](Cc1ccccc1)NC(=O)[C@H](CCC(=O)O)NC(=O)[C@H](C)N)C(=O)NCC(=O)N1CCC[C@H]1C(=O)N[C@@H](CC(N)=O)C(=O)NCC(=O)N[C@@H](Cc1ccc(O)cc1)C(=O)N[C@H](C(=O)N[C@@H](Cc1ccc(O)cc1)C(=O)N[C@@H](CC(C)C)C(=O)N[C@@H](Cc1c[nH]cn1)C(=O)N[C@@H](CO)C(=O)N[C@H](C)C(N)=O)C(C)C [Analog 96] (H-AEFFKLGPNGYVYLHS[dA]-NH2)	
destroyed receptor binding activity			AEFFKAGPNGYVYLHSA [Analog 69]	
	79%	80	CC(C)C[C@H](NC(=O)[C@H](CCCCN)NC(=O)[C@H](Cc1ccccc1)NC(=O)[C@H](Cc1ccccc1)NC(=O)[C@H](CCC(=O)O)NC(=O)[C@H](C)N)C(=O)NCC(=O)N1CCC[C@H]1C(=O)N[C@@H](CC(N)=O)C(=O)N[C@H](C)C(=O)N[C@@H](Cc1ccc(O)cc1)C(=O)N[C@H](C(=O)N[C@@H](Cc1ccc(O)cc1)C(=O)N[C@@H](CC(C)C)C(=O)N[C@@H](Cc1c[nH]cn1)C(=O)N[C@@H](CO)C(=O)N[C@@H](C)C(N)=O)C(C)C [Analog 81] (H-AEFFKLGPN[dA]YVYLHSA-NH2)	
	44%	59	CC(C)C[C@H](NC(=O)[C@H](CCCCN)NC(=O)[C@H](Cc1ccccc1)NC(=O)[C@H](Cc1ccccc1)NC(=O)[C@@H](CCC(=O)O)NC(=O)[C@H](C)N)C(=O)NCC(=O)N1CCC[C@H]1C(=O)N[C@@H](CC(N)=O)C(=O)NCC(=O)N[C@@H](Cc1ccc(O)cc1)C(=O)N[C@H](C(=O)N[C@@H](Cc1ccc(O)cc1)C(=O)N[C@@H](CC(C)C)C(=O)N[C@@H](Cc1c[nH]cn1)C(=O)N[C@@H](CO)C(=O)N[C@@H](C)C(N)=O)C(C)C [Analog 83] (H-A[dE]FFKLGPNGYVYLHSA-NH2)	
	80* %	76	CC(C)C[C@H](NC(=O)[C@H](CCCCN)NC(=O)[C@H](Cc1ccccc1)NC(=O)[C@H](Cc1ccccc1)NC(=O)[C@H](CCC(=O)O)NC(=O)[C@H](C)N)C(=O)NCC(=O)N1CCC[C@@H]1C(=O)N[C@@H](CC(N)=O)C(=O)NCC(=O)N[C@@H](Cc1ccc(O)cc1)C(=O)N[C@H](C(=O)N[C@@H](Cc1ccc(O)cc1)C(=O)N[C@@H](CC(C)C)C(=O)N[C@@H](Cc1c[nH]cn1)C(=O)N[C@@H](CO)C(=O)N[C@@H](C)C(N)=O)C(C)C [Analog 88] (H-AEFFKLG[dP]NGYVYLHSA-NH2)	
	15%	13	CC(C)C[C@H](NC(=O)[C@H](CCCCN)NC(=O)[C@H](Cc1ccccc1)NC(=O)[C@H](Cc1ccccc1)NC(=O)[C@H](CCC(=O)O)NC(=O)[C@H](C)N)C(=O)NCC(=O)N1CCC[C@H]1C(=O)N[C@H](CC(N)=O)C(=O)NCC(=O)N[C@@H](Cc1ccc(O)cc1)C(=O)N[C@H](C(=O)N[C@@H](Cc1ccc(O)cc1)C(=O)N[C@@H](CC(C)C)C(=O)N[C@@H](Cc1c[nH]cn1)C(=O)N[C@@H](CO)C(=O)N[C@@H](C)C(N)=O)C(C)C [Analog 89] (H-AEFFKLGP[dN]GYVYLHSA-NH2)	
